Among the data in PubChem BioAssay (NCI) are TGI and GI50 values, retold here.

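All cell lines were grown in 96-well plates and treated with compound for 48 hours. GI50: concentration for 50% inhibition of growth. TGI: concentration producing complete growth inhibition.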 A value given as a limit tells only on which side of the number the result lay.

Among the test systems are HT29 colon; SNB-19 CNS; PC-3 prostate; A549 NSCLC; OVCAR-5 ovarian; K-562 leukemia; SF-268 CNS; RPMI-8226 leukemia; 786-0 renal; SK-MEL-28 melanoma.
What all share (experiment): NCI tumour cell line growth inhibition, 48 h

As to `O=C(O)C1C(C(=O)O)C23CC2(C(=O)O)C2(C(=O)O)CCC3=C3CCCC312` (configuration not stated), the TGI in the test with HT29 colon was 44.8 µM; with SNB-19 CNS, 73.6 µM; with PC-3 prostate, 31.2 µM; in the test on A549 NSCLC, over 100 µM; with OVCAR-5 ovarian, 47.3 µM; in the test with K-562 leukemia, 95.5 µM. Further, the TGI was 22.5 µM in the test on SF-268 CNS, 37.9 µM in the test on RPMI-8226 leukemia, over 100 µM in the test with 786-0 renal and 29.9 µM in the test on SK-MEL-28 melanoma.
Take `CN(C)CCCN1c2ccccc2C(C)(C)c2ccccc21`: the TGI came out at 24 µM with HT29 colon; 28.8 µM in the test with SNB-19 CNS; 26.6 µM in the test on PC-3 prostate; 30.7 µM in the test on A549 NSCLC; 27.2 µM in the test with OVCAR-5 ovarian; 27.1 µM with K-562 leukemia. The TGI in the test on SF-268 CNS was found to be 27.2 µM; in the test with RPMI-8226 leukemia, 28.5 µM; with 786-0 renal, 27.7 µM; with SK-MEL-28 melanoma it was 31.4 µM.
Take `COc1cc2c(cc1OCCCCCOc1ccc(-n3c(C)nc4ccccc4c3=O)cc1)N=C[C@@H]1CCCN1C2=O`: the GI50 in the test on HT29 colon was 0.317 µM; in the test with SNB-19 CNS it was 1 µM; in the test with PC-3 prostate, 0.34 µM; in the test on A549 NSCLC it was 0.276 µM; with OVCAR-5 ovarian, 0.281 µM; with K-562 leukemia it was 0.164 µM. For the same molecule, the GI50 was 0.376 µM with SF-268 CNS, 0.204 µM in the test on RPMI-8226 leukemia, 0.157 µM with 786-0 renal and 0.27 µM in the test on SK-MEL-28 melanoma. Further, the TGI with HT29 colon is over 100 µM; in the test on PC-3 prostate, 2.89 µM; in the test on A549 NSCLC, 0.982 µM; with OVCAR-5 ovarian it was 0.678 µM; with RPMI-8226 leukemia, 0.545 µM; with 786-0 renal it was 0.36 µM. In the test on SK-MEL-28 melanoma, this molecule had a TGI of 0.853 µM.
For the molecule `CNCCNc1c2c(c(NCCNC)c3[nH]ccc13)C(=O)c1ccccc1C2=O`, the GI50 in the test on HT29 colon was 1.35 µM; in the test with SNB-19 CNS, 4.58 µM; in the test on PC-3 prostate, 0.0593 µM; in the test with A549 NSCLC, 0.0904 µM; with OVCAR-5 ovarian, 0.536 µM; in the test with K-562 leukemia, 0.126 µM. Further, the GI50 in the test with SF-268 CNS was 0.222 µM; with RPMI-8226 leukemia, 0.051 µM; in the test with 786-0 renal, 0.0646 µM; with SK-MEL-28 melanoma, 4.18 µM. In addition, the TGI with HT29 colon is 5.23 µM; with SNB-19 CNS, 11.5 µM; in the test on PC-3 prostate it was 0.309 µM; with A549 NSCLC, 0.427 µM; in the test on OVCAR-5 ovarian, 1.93 µM; in the test on K-562 leukemia, over 100 µM. Moreover, the TGI in the test on SF-268 CNS came out at 0.876 µM; in the test with RPMI-8226 leukemia, 0.214 µM; in the test on 786-0 renal, 0.821 µM; in the test on SK-MEL-28 melanoma, 11.1 µM.
